Holding throughout (format): functional
Experiment [1] has as its system Mycobacterium tuberculosis. In words: Antibacterial activity against HYG cassette-positive Mycobacterium tuberculosis B5200 by modified conventional agar proportion method.
For experiment [2], the system named is Mycobacterium tuberculosis. The experiment can be described thus: Antibacterial activity against HYG cassette-positive Mycobacterium tuberculosis RvAS9 by modified conventional agar proportion method.
The test system of experiment [3] is Mycobacterium tuberculosis. The experiment can be described thus: Antibacterial activity against HYG cassette-positive Mycobacterium tuberculosis Rv8101 by modified conventional agar proportion method.
Experiment [4] concerns Mycobacterium tuberculosis. In words: Antibacterial activity against Mycobacterium tuberculosis H37Rv by modified conventional agar proportion method.
Experiment [5] relates to Mycobacterium tuberculosis. The experiment can be described thus: Antibacterial activity against HYG cassette-negative Mycobacterium tuberculosis Beijing by modified conventional agar proportion method.
In experiment [6] the test system is Mycobacterium tuberculosis. The experiment can be described thus: Antibacterial activity against HYG cassette-positive Mycobacterium tuberculosis Rv8100 by modified conventional agar proportion method.
Experiment [7] concerns Mycobacterium tuberculosis. The experiment can be described thus: Antibacterial activity against HYG cassette-positive Mycobacterium tuberculosis Rv4400 by modified conventional agar proportion method.
For experiment [8], the system named is Mycobacterium tuberculosis. The experiment can be described thus: Antibacterial activity against HYG cassette-positive Mycobacterium tuberculosis B5201 by modified conventional agar proportion method.
The test system of experiment [9] is Mycobacterium tuberculosis. The experiment can be described thus: Antibacterial activity against HYG cassette-positive Mycobacterium tuberculosis BAS10 by modified conventional agar proportion method.
The subject of experiment [10] is Mycobacterium tuberculosis. In words: Antibacterial activity against HYG cassette-positive Mycobacterium tuberculosis B5401 by modified conventional agar proportion method.
Experiment [11] deals with Mycobacterium tuberculosis. The experiment can be described thus: Antibacterial activity against HYG cassette-positive Mycobacterium tuberculosis Rv4401 by modified conventional agar proportion method.
In experiment [12] the test system is Mycobacterium tuberculosis. In words: Antibacterial activity against HYG cassette-negative Mycobacterium tuberculosis H37Rv by modified conventional agar proportion method.
In experiment [13] the test system is Mycobacterium tuberculosis. In words: Antibacterial activity against Mycobacterium tuberculosis Beijing by modified conventional agar proportion method.
The subject of experiment [14] is Mycobacterium tuberculosis. The experiment can be described thus: Antibacterial activity against HYG cassette-positive Mycobacterium tuberculosis B5400 by modified conventional agar proportion method.

In brackets after ≈: the same amount, converted by molar mass.

The MIC is the lowest concentration found to suppress growth. Higher therefore signals weaker potency. For `CC[C@@H](CO)NCCN[C@@H](CC)CO` [ETHAMBUTOL], the MIC in experiment [1], in [2], in experiment [3], in experiment [4], in [5] and in experiment [6] was 5 µg/mL (≈ 24.5 µM) throughout. The MIC in experiment [7] was determined as 10 µg/mL (≈ 48.9 µM); in [8], 5 µg/mL (≈ 24.5 µM); in experiment [9] it was 5 µg/mL (≈ 24.5 µM); in [10], 5 µg/mL (≈ 24.5 µM); in [11] it was 10 µg/mL (≈ 48.9 µM); in experiment [12], 5 µg/mL (≈ 24.5 µM). The MIC in experiment [13] and in experiment [14] was 5 µg/mL (≈ 24.5 µM) in each case.

The values are drawn from ChEMBL document CHEMBL1629650 (2009).
